“And” between values parts separate entries of the source, which are not always exact repeats. Equal values may be shown once.
What was measured:
[1] = test system: HIV-1 (patient-derived PR-RT segment); assay: phenotypic drug resistance test, resistance test vectors with patient-derived PR-RT segment, luciferase, 293 cells; format: cell-based
Source text: Patient-derived segments corresponding to the HIV protease and reverse transcriptase coding regions (hereinafter “PR-RT) were amplified by the reverse transcription-polymerase chain reaction method (RT-PCR) using viral RNA isolated from viral particles present in the plasma or serum of HIV-infected individuals as follows. Viral RNA was isolated from the plasma or serum using oligo-dT magnetic beads (Dynal Biotech, Oslo, Norway), followed by washing and elution of viral RNA. The RT-PCR protocol was divided into two steps. A retroviral reverse transcriptase (e.g. Moloney MuLV reverse transcriptase (Roche Molecular Systems, Inc., Branchburg, N.J.; Invitrogen, Carlsbad, Calif.), or avian myeloblastosis virus (AMV) reverse transcriptase, (Boehringer Mannheim, Indianapolis, Ind.)) was used to copy viral RNA into cDNA. The cDNA was then amplified using a thermostable DNA polymerase (e.g. Taq (Roche Molecular Systems, Inc., Branchburg, N.J.), Tth (Roche Molecular Systems, Inc., Branchburg, N.J.), PRIMEZYME. (enzyme_isolated from Thermus brockianus, Biometra, Gottingen, Germany)) or a combination of thermostable polymerases as described for the performance of “long PCR” (Barnes, W. M., 1994, Proc. Natl. Acad. Sci, USA 91, 2216-20) (e.g. Expand High Fidelity PCR System (Taq+Pwo), (Boehringer Mannheim. Indianapolis, Ind.); GENEAMP® XL PCR kit (PCR kit using_Tth+Vent), (Roche Molecular Systems, Inc., Branchburg, N.J.); or ADVANTAGE II®, Clontech, Palo Alto, Calif.)
PCR primers were designed to introduce ApaI and PinAl recognition sites into the 5′ or 3′ end of the PCR product, respectively.
Resistance test vectors incorporating the “test” patient-derived segments were constructed as described in U.S. Pat. No. 5,837,464 using an amplified DNA product of 1.5 kB prepared by RT-PCR using viral RNA as a template and oligonucleotides PDS Apa, PDS Age, PDS PCR6, Apa-gen, Apa-c, Apa-f, Age-gen, Age-a, RT-ad, RT-b, RT-c, RT-f, and/or RT-g as primers, followed by digestion with ApaI and Agel or the isoschizomer PinAl. To ensure that the plasmid DNA corresponding to the resultant fitness test vector comprises a representative sample of the HIV viral quasi-species present in the serum of a given patient, many (>250) independent E. coli transformants obtained in the construction of a given fitness test vector were pooled and used for the preparation of plasmid DNA.
A packaging expression vector encoding an amphotrophic MuLV 4070A env gene product enables production in a resistance test vector host cell comprising the vector alone viral particles which can efficiently infect human target cells. Vectors encoding all HIV genes with the exception of env were used to transfect a packaging host cell (once transfected the host cell is referred to as a fitness test vector host cell). The packaging expression vector which encodes the amphotrophic MuLV 4070A env gene product is used with the resistance test vector to enable production in the resistance test vector host cell of infectious pseudotyped resistance test vector viral particles.
Drug resistance tests performed with resistance test vectors were carried out using packaging host and target host cells consisting of the human embryonic kidney cell line 293.
Resistance tests were carried out with resistance test vectors using two host cell types. Resistance test vector viral particles were produced by a first host cell (the resistance test vector host cell) that was prepared by transfecting a packaging host cell with the resistance test vector and the packaging expression vector. The resistance test vector viral particles were then used to infect a second host cell (the target host cell) in which the expression of the indicator gene is measured.
The resistance test vectors containing a functional luciferase gene cassette were constructed as described above and host cells were transfected with the resistance test vector DNA. […]

[2] = test system: HIV-1 NL4-3 site-directed reverse transcriptase mutants; assay: phenotypic drug resistance test, site-directed reverse transcriptase mutants in NL4-3 background (POL segment assay); format: cell-based; conditions: for resistance versus known NNRTI mutation(s) alone: any of N348I, T369I, E399D combined with G190S, K103N, or K103R and V179D, NL4-3 background
Procedure: Further, a site directed double mutant T3691/K103N was generated using conventional techniques and tested for resistance to an NNRTI using the methods described above.
To assess the effects of mutations at positions 348, 369, and 399, a series of site-directed mutants were constructed in an wild-type (NL4-3) background. The NNRTI susceptibility phenotypes of these mutants were then determined using the POL segment assay according to Example 2.
In particular, site-directed mutants were constructed in an NL4-3 background comprising N348I, T369I, E399D, or the combination of N3481 and T369I.
Next, a series of site-directed mutants were constructed to assess the effects of combinations of N3481, T369I, and E399D with previously recognized NNRTI resistance mutations. In particular, mutants comprising N348I, T369I, and E399D were made in combination with G190S, with K103N, and with the combination of K103R and V179D. The effects of these combinations on DLV, EFV, and NVP susceptibility were tested using the POL segment assay according to the method describe in Example 2. The results from these experiments are presented as FIG. 10.
To assess the specific effects of mutations at positions 348, 369, and 399, a series of site-directed mutants were constructed in an wild-type (NL4-3) background. The AZT susceptibility phenotype of these mutants were then determined with a POL segment assay according to Example 2.
In particular, site-directed mutants were constructed in an NL4-3 background comprising N348I, T3691, E399D, or the combination of N348I and T3691. The FC in AZT susceptibility for each mutant is shown as FIG. 13.

[3] = Sample 47 (K103K/N, V106V/A, Y181Y/C, G190G/A)
[4] = Sample 58 (K103N, Y181Y/C, G190G/A)
[5] = Sample 62 (K103H, P225P/H, T369T/I)
[6] = Sample 90 (K103K/N, Y181C, G190A)

Structure (SMILES) | fold change in IC50, PR-RT ([1]; Sample 31 (K103N)) | fold change in IC50, PR-RT ([1]; Sample 33 (K103S)) | fold change in IC50, PR-RT ([1]; Sample 34) | fold change in IC50, PR-RT ([1]; Sample 35 (K103H)) | fold change in IC50, PR-RT ([1]; Sample 36 (K103K/W)) | fold change in IC50, PR-RT ([1]; Sample 38 (K103N)) | fold change in IC50, PR-RT ([1]; Sample 39 (T369A)) | fold change in IC50, PR-RT ([1]; Sample 42 (G190G/A)) | fold change in IC50, PR-RT ([1]; Sample 45) | fold change in IC50, PR-RT [1, 3] | fold change in IC50, PR-RT ([1]; Sample 50 (K103N)) | fold change in IC50, PR-RT ([1]; Sample 51) | fold change in IC50, PR-RT ([1]; Sample 52) | fold change in IC50, PR-RT [1, 4] | fold change in IC50, PR-RT [1, 5] | fold change in IC50, PR-RT ([1]; Sample 64 (T369T/A)) | fold change in IC50, PR-RT ([1]; Sample 69) | fold change in IC50, PR-RT ([1]; Sample 72) | fold change in IC50, PR-RT ([1]; Sample 80 (K103K/N, Y181Y/C)) | fold change in IC50, PR-RT ([1]; Sample 81 (K103N, P225H)) | also measured
O=C1Nc2ccc(Cl)cc2[C@@](C#CC2CC2)(C(F)(F)F)O1 [EFV, efavirenz] | 22.8 fold | 7.1 fold | 0.4 fold | 9.3 fold | 6.7 fold | 42.0 fold | 0.3 fold | 3.1 fold | 0.2 fold | 123.9 fold | 63.2 fold | 0.5 fold | 1.3 fold | 26.4 fold | 20 fold and 20.0 fold and 20.00 fold | 1.1 fold | 0.8 fold | 0.5 fold | 11.0 fold | 98.0 fold | fold change in IC50, PR-RT ([1]; Sample 84): 0.7 fold; fold change in IC50, PR-RT ([1]; Sample 85): 22.0 fold; fold change in IC50, PR-RT ([1]; Sample 87): 0.9 fold; fold change in IC50, PR-RT ([1]; Sample 89 (L1001, K103N)): 700.0 fold; fold change in IC50, PR-RT [1, 6]: 50.5 fold; fold change in IC50, PR-RT ([1]; Sample 92): 1.0 fold; fold change in IC50, PR-RT ([1]; Sample 93): 0.8 fold; resistance versus known NNRTI mutation(s) alone [2]: increased
Cc1ccnc2c1NC(=O)c1cccnc1N2C1CC1 [NVP, nevirapine] | 88.4 fold | 23.3 fold | 0.3 fold | 25.2 fold | 13.0 fold | 114.0 fold | 0.3 fold | 34.0 fold | 0.3 fold | 400.0 fold | 153.9 fold | 0.4 fold | 2.0 fold | 400.0 fold | 64 fold and 64.0 fold and 64.00 fold | 1.0 fold | 1.0 fold | 0.7 fold | 46.0 fold | 92.0 fold | fold change in IC50, PR-RT ([1]; Sample 84): 0.8 fold; fold change in IC50, PR-RT ([1]; Sample 85): 131.7 fold; fold change in IC50, PR-RT ([1]; Sample 87): 0.8 fold; fold change in IC50, PR-RT ([1]; Sample 89 (L1001, K103N)): 37.0 fold; fold change in IC50, PR-RT [1, 6]: 400.0 fold; fold change in IC50, PR-RT ([1]; Sample 92): 1.1 fold; fold change in IC50, PR-RT ([1]; Sample 93): 1.6 fold; resistance versus known NNRTI mutation(s) alone [2]: increased; resistance of mutant ([2]; site-directed double mutant T369I/K103N): enhanced resistance
CC(C)Nc1cccnc1N1CCN(C(=O)c2cc3cc(NS(C)(=O)=O)ccc3[nH]2)CC1 [DLV, delavirdine] | 16.4 fold | 8.7 fold | 0.5 fold | 6.5 fold | 6.7 fold | 128.0 fold | 0.2 fold | 0.4 fold | 0.1 fold | 6.2 fold | 250.0 fold | 0.3 fold | 3.1 fold | 149.6 fold | 16.0 fold and 16.00 fold | 1.6 fold | 1.4 fold | 0.9 fold | 65.0 fold | 12.0 fold | fold change in IC50, PR-RT ([1]; Sample 84): 0.9 fold; fold change in IC50, PR-RT ([1]; Sample 85): 25.2 fold; fold change in IC50, PR-RT ([1]; Sample 87): 0.7 fold; fold change in IC50, PR-RT ([1]; Sample 89 (L1001, K103N)): 250.0 fold; fold change in IC50, PR-RT [1, 6]: 4.1 fold; fold change in IC50, PR-RT ([1]; Sample 92): 1.1 fold; fold change in IC50, PR-RT ([1]; Sample 93): 0.3 fold; FC in susceptibility relative to NL4-3, versus G190S mutant ([2]; G190S and E399D combination mutant): the same FC

Reference: patent US8637252B2, “Methods and compositions for determining altered susceptibility of HIV-1 to anti-HIV drugs” (Monogram Biosciences, Inc., priority 2011, dated 2014)
